Reference: patent US4332820A, “Substituted benzonitriles having antiviral activity” (The Dow Chemical Company, priority 1980, dated 1982)
Values after ≈ are worked out from the molar mass of the structure shown.

What was measured:
[1] = Cytotoxicity in tissue culture (HeLa monolayers); type: cell-based; conditions: human; HeLa cells; observed at 48 and 72 hours post-treatment; read-out: Cytotoxicity (concentration of the compound found to be toxic to the cell)
[2] = tested on: rhinovirus type 1A (RV-1A); assay: Tissue culture antiviral testing, RV-1A (cytopathic effect, HeLa cells); type: cell-based; conditions: for EC50: Enterovirus, HeLa cells, NA = not active at the standard test conditions, read-out: Lowest concentration of the compound necessary to cause a 50 percent reduction in cytopathic effect
[3] = tested on: rhinovirus type 2 (RV-2); assay: Tissue culture antiviral testing, RV-2 (cytopathic effect, HeLa cells); type: cell-based; conditions: for EC50: Enterovirus, HeLa cells, NA = not active at the standard test conditions, read-out: Lowest concentration of the compound necessary to cause a 50 percent reduction in cytopathic effect
[4] = tested on: Coxsackie A21 virus (Cox A21); assay: Tissue culture antiviral testing, Cox A21 (cytopathic effect, HeLa cells); type: cell-based; conditions: for EC50: HeLa cells, NA = not active at the standard test conditions, read-out: Lowest concentration of the compound necessary to cause a 50 percent reduction in cytopathic effect
[5] = tested on: Cox A21; assay: Single Oral Dose test in mice challenged with Cox A21; type: in vivo, Swiss male mice; conditions: po, 600 mg/kg, 3 h
[6] = tested on: Coxsackie A21 virus; assay: Continuous Oral Feeding test in mice challenged with Coxsackie A21; type: in vivo; conditions: for X^2 (Continuous Oral Feeding, chi-square of deaths): 0.06 % in diet, 240 h, 0.06 % strength
[7] = tested on: rhinovirus type 5 (RV-5); assay: Tissue culture antiviral testing, RV-5 (cytopathic effect, HeLa cells); type: cell-based; conditions: for EC50: Enterovirus, HeLa cells, read-out: Lowest concentration of the compound necessary to cause a 50 percent reduction in cytopathic effect
[8] = tested on: rhinovirus type 8 (RV-8); assay: Tissue culture antiviral testing, RV-8 (cytopathic effect, HeLa cells); type: cell-based; conditions: for EC50: Enterovirus, HeLa cells, read-out: Lowest concentration of the compound necessary to cause a 50 percent reduction in cytopathic effect
[9] = tested on: rhinovirus type 64 (RV-64); assay: Tissue culture antiviral testing, RV-64 (cytopathic effect, HeLa cells); type: cell-based; conditions: for EC50: Enterovirus, HeLa cells, NA = not active at the standard test conditions, read-out: Lowest concentration of the compound necessary to cause a 50 percent reduction in cytopathic effect

Compound | EC50 [2] | EC50 [3] | EC50 [4] | EC50 [7] | EC50 [8] | EC50 [9] | MCC [1] | X^2 (Continuous Oral Feeding, chi-square of deaths) [6] | further results
N#Cc1cc([N+](=O)[O-])ccc1Sc1ccc(Cl)cc1 [Example 12, 2-((4-Chlorophenyl)thio)-5-nitrobenzonitrile] | ~3.12 µg/mL (≈ 10.7 µM) | ≤ 1.6 µg/mL | 1.6 µg/mL (≈ 5.5 µM) | – | – | – | 25 µg/mL | 0.215 | X^2 (Single Oral Dose, chi-square of deaths vs virus control) [5]: 4.805
N#Cc1cc(Oc2ccc(Cl)c(Cl)c2)ccc1[N+](=O)[O-] [5-(3,4-dichlorophenoxy)-2-nitrobenzonitrile, reference compound] | – | – | – | – | – | – | – | – | concentration required to produce a 50% reduction in cytopathic effect, compared with 2-(3,4-dichlorophenoxy)-5-nitrobenzonitrile ([2]; in words): higher concentrations; concentration required to produce a 50% reduction in cytopathic effect, compared with 2-(3,4-dichlorophenoxy)-5-nitrobenzonitrile ([3]; in words): higher concentrations; concentration required to produce a 50% reduction in cytopathic effect, compared with 2-(3,4-dichlorophenoxy)-5-nitrobenzonitrile ([4]; in words): higher concentrations; antiviral activity at the test concentrations employed ([7]; in words): not active; antiviral activity at the test concentrations employed ([8]; in words): not active; antiviral activity at the test concentrations employed ([9]; in words): not active; antiviral activity in the "Continuous Oral Feeding" test ([6]; in words, 95% confidence level): failed to exhibit antiviral activity
CSc1ccc(Oc2ccc([N+](=O)[O-])cc2C#N)cc1 [Example 6, 2-(4-(Methylthio)phenoxy)-5-nitrobenzonitrile] | – | ≤ 6.25 µg/mL | < 6.25 µg/mL | – | – | – | 100 µg/mL | 6.91 | X^2 (Single Oral Dose, chi-square of deaths vs virus control) [5]: 0.609
N#Cc1cc([N+](=O)[O-])ccc1Oc1c(F)c(F)c(F)c(F)c1F [Example 19, 2-(2,3,4,5,6-Pentafluorophenoxy)-5-nitrobenzonitrile] | 6.25 µg/mL (≈ 18.9 µM) | ≤ 3.12 µg/mL | 6.25 µg/mL (≈ 18.9 µM) | 1.25 µg/mL (≈ 3.79 µM) | 1.25 µg/mL (≈ 3.79 µM) | 0.312 µg/mL (≈ 0.946 µM) | 12.5 µg/mL | – | –
Cc1cc(Cl)ccc1Oc1ccc([N+](=O)[O-])cc1C#N [Example 16, 2-(4-Chloro-2-methylphenoxy)-5-nitrobenzonitrile] | 12.5 µg/mL (≈ 43.3 µM) | 3.12 µg/mL (≈ 10.8 µM) | 12.5 µg/mL (≈ 43.3 µM) | 6.25 µg/mL (≈ 21.6 µM) | 3.12 µg/mL (≈ 10.8 µM) | – | > 50 µg/mL | – | –
CS(=O)(=O)c1ccc(Oc2ccc([N+](=O)[O-])cc2C#N)cc1 [Example 8, 2-(4-(Methylsulfonyl)phenoxy)-5-nitrobenzonitrile] | – | 12.5 µg/mL (≈ 39.3 µM) | < 6.25 µg/mL | – | – | – | > 100 µg/mL | 10.45 | X^2 (Single Oral Dose, chi-square of deaths vs virus control) [5]: 0.095
CCN(CC)S(=O)(=O)c1ccc(Oc2ccc([N+](=O)[O-])cc2C#N)cc1 [Example 10, N,N-Diethyl-4-(2-cyano-4-nitrophenoxy)benzenesulfonamide] | ~50 µg/mL (≈ 133 µM) | – | < 6.25 µg/mL | – | – | – | > 100 µg/mL | 2.84 | –
COc1cccc(Oc2ccc([N+](=O)[O-])cc2C#N)c1 [Example 13, 2-(3-Methoxyphenoxy)-5-nitrobenzonitrile] | 6.25 µg/mL (≈ 23.1 µM) | ≤ 3.12 µg/mL | < 3.12 µg/mL | 6.25 µg/mL (≈ 23.1 µM) | 3.12 µg/mL (≈ 11.6 µM) | 12.5 µg/mL (≈ 46.3 µM) | > 50 µg/mL | – | –

Now from value to compound, other results behind:

EC50 [2] | EC50 [3] | EC50 [4] | EC50 [7] | EC50 [8] | EC50 [9] | Compound | MCC [1] | X^2 (Continuous Oral Feeding, chi-square of deaths) [6] | further results
3.12 µg/mL (≈ 10.1 µM) | ≤ 3.12 µg/mL | 12.5 µg/mL (≈ 40.4 µM) | 3.12 µg/mL (≈ 10.1 µM) | ≤ 3.12 µg/mL | 3.12 µg/mL (≈ 10.1 µM) | N#Cc1cc([N+](=O)[O-])ccc1Oc1c(Cl)cccc1Cl [Example 24, 2-(2,6-Dichlorophenoxy)-5-nitrobenzonitrile] | > 50 µg/mL | – | –
0.625 µg/mL (≈ 2.42 µM) | < 0.625 µg/mL | 0.625 µg/mL (≈ 2.42 µM) | 1.25 µg/mL (≈ 4.84 µM) | 0.625 µg/mL (≈ 2.42 µM) | 0.625 µg/mL (≈ 2.42 µM) | N#Cc1cc([N+](=O)[O-])ccc1Oc1ccc(F)cc1 [Example 21, 2-(4-Fluorophenoxy)-5-nitrobenzonitrile] | 10 µg/mL | 10.513 | –
2.5 µg/mL (≈ 7.28 µM) | 1.25 µg/mL (≈ 3.64 µM) | 5 µg/mL (≈ 14.6 µM) | 3.12 µg/mL (≈ 9.1 µM) | < 3.12 µg/mL | 3.12 µg/mL (≈ 9.1 µM) | N#Cc1cc([N+](=O)[O-])ccc1Oc1c(Cl)ccc(Cl)c1Cl [Example 31, 2-(2,3,6-Trichlorophenoxy)-5-nitrobenzonitrile] | > 20 µg/mL | – | –
~10 µg/mL (≈ 29.1 µM) | 1.25 µg/mL (≈ 3.64 µM) | ~5 µg/mL (≈ 14.6 µM) | – | – | – | N#Cc1cc([N+](=O)[O-])ccc1Oc1ccc(Cl)c(Cl)c1Cl [Example 29, 2-(2,3,4-Trichlorophenoxy)-5-nitrobenzonitrile] | > 20 µg/mL | – | –
– | 1.25 µg/mL (≈ 4.06 µM) | 10 µg/mL (≈ 32.4 µM) | – | – | – | N#Cc1cc([N+](=O)[O-])ccc1Oc1ccccc1C(F)(F)F [Example 26, 2-((2-Trifluoromethyl)phenoxy)-5-nitrobenzonitrile] | ≥ 20 µg/mL | – | –
2.5 µg/mL (≈ 7.28 µM) | 2.5 µg/mL (≈ 7.28 µM) | – | – | – | – | N#Cc1cc([N+](=O)[O-])ccc1Oc1cc(Cl)cc(Cl)c1Cl [Example 30, 2-(2,3,5-Trichlorophenoxy)-5-nitrobenzonitrile] | > 20 µg/mL | – | –
– | 2.5 µg/mL (≈ 6.65 µM) | 10 µg/mL (≈ 26.6 µM) | – | – | – | N#Cc1cc([N+](=O)[O-])ccc1Oc1cc(C(F)(F)F)cc(C(F)(F)F)c1 [Example 28, 2-(3,5-bis(Trifluoromethyl)phenoxy)-5-nitrobenzonitrile] | ≥ 20 µg/mL | – | –
